Assay results from patent US10065950B2, “Substituted thiazoles as HIV integrase inhibitors” (Japan Tobacco Inc., priority 2010, dated 2018).

Target: HIV-1 pNL4-3 integrase (Human immunodeficiency virus type 1 group M subtype B (isolate NY5) (HIV-1), UniProt P12497)
Assay: Determination of enzyme (HIV integrase) inhibitory activity
Type: biochemical
Details: calculated from inhibition rate (fluorescence)
Procedure, shortened: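 Full-length pNL4-3 integrase from E. coli (0.75 μM stock) reacted 60 min at 37° C with compound and biotinylated donor DNA bound to streptavidin plates, in MOPS buffer with 5 mM MgCl2 and 10% DMSO. Digoxigenin-labelled target DNA (25 nM stock) then added for 20 min; strand transfer read by peroxidase anti-digoxigenin fluorescence (Ex 325/Em 420 nm).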

| Structure (SMILES) | IC50 |
| --- | --- |
| COCCOC[C@@H]1Cn2cc(-c3nnc(Cc4ccc(F)cc4)s3)c(=O)c(O)c2C(=O)N1C(C)C [Example 83] | 7.1 nM |
| CCN1C(=O)c2c(O)c(=O)c(-c3ncc(Cc4ccc(F)cc4)s3)cn2C[C@@]1(C)C(=O)NC [Example 252] | 9.2 nM |
| CCN(CC)C(=O)CC1CN(C(C)C)C(=O)c2c(O)c(=O)c(-c3ncc(Cc4ccc(F)cc4F)s3)cn21 (stereo not shown) [Example 77] | 11 nM |
| COC[C@@H]1[C@H](C)N(C(C)C)C(=O)c2c(O)c(=O)c(-c3nnc(Cc4ccc(F)cc4)s3)cn21 [Example 356] | 8.9 nM |
| CCN1C(=O)c2c(O)c(=O)c(-c3nnc(Cc4ccc(F)cc4)s3)cn2C[C@]1(C)COC [Example 318] | 6.5 nM |
| CC(C)N1C[C@@](C)(C(=O)N2CCCC2)n2cc(-c3ncc(Cc4ccc(F)cc4)s3)c(=O)c(O)c2C1=O [Example 225] | 18 nM |
| CCNC(=O)C1(C)CN(CC)C(=O)c2c(O)c(=O)c(-c3ncc(Cc4ccc(F)cc4F)s3)cn21 (stereo not shown) [Example 162] | 7.1 nM |
| CC(C)N1CC(C)(C(=O)N(C)C)n2cc(-c3nnc(Cc4ccc(F)c(F)c4)s3)c(=O)c(O)c2C1=O (stereo not shown) [Example 157] | 29 nM |
| CC(C)N1C[C@@H](C(C)(C)C)n2cc(-c3nnc(Cc4ccc(F)cc4)s3)c(=O)c(O)c2C1=O [Example 192] | 15 nM |
| CCCCN1C[C@H](COCCOC)n2cc(-c3nnc(Cc4ccc(F)cc4)s3)c(=O)c(O)c2C1=O [Example 362] | 10 nM |
| CC(C)N1C(=O)c2c(O)c(=O)c(-c3nnc(Cc4ccc(F)cc4F)s3)cn2C[C@H]1CNS(C)(=O)=O [Example 158] | 5.4 nM |
| CC(C)N1CC(CN)n2cc(-c3ncc(Cc4ccc(F)cc4F)s3)c(=O)c(O)c2C1=O (stereo not shown) [Example 66] | 6.4 nM |
| COCCOC[C@@H]1Cn2cc(-c3nnc(Cc4ccc(F)cc4F)s3)c(=O)c(O)c2C(=O)N1CC(C)(C)C [Example 129] | 12 nM |
| CCN1C[C@@](C)(C(=O)N2CCC2)n2cc(-c3ncc(Cc4ccc(F)cc4)s3)c(=O)c(O)c2C1=O [Example 271] | 11 nM |
| CCN1C(=O)c2c(O)c(=O)c(-c3ncc(Cc4ccc(F)cc4)s3)cn2[C@@H](COC)[C@H]1C [Example 261] | 11 nM |
| CC(C)N1C[C@@](C)(C(=O)NC2CC2)n2cc(-c3ncc(Cc4ccc(F)cc4)s3)c(=O)c(O)c2C1=O [Example 245] | 8.1 nM |
| CC(C)N1C[C@@](C)(C(=O)N2CCCC2)n2cc(-c3nnc(Cc4ccc(F)cc4F)s3)c(=O)c(O)c2C1=O [Example 172] | 14 nM |
| COCC1(C)CN(C(C)C)C(=O)c2c(O)c(=O)c(-c3ncc(Cc4ccc(F)cc4F)s3)cn21 (stereo not shown) [Example 121] | 16 nM |
| CC(C)N1C(=O)c2c(O)c(=O)c(-c3nnc(Cc4ccc(F)cc4F)s3)cn2CC1C#N (stereo not shown) [Example 64] | 6.1 nM |
| COC[C@H]1CN(C(C)C)C(=O)c2c(O)c(=O)c(-c3nnc(CCCc4ccc(F)cc4)s3)cn21 [Example 242] | 13 nM |
| C[C@H](C1CC1)N1C[C@](C)(C(=O)N(C)C)n2cc(-c3ncc(Cc4ccc(F)cc4)s3)c(=O)c(O)c2C1=O [Example 282] | 15 nM |
| CC(C)N1CC2(CC2)n2cc(-c3nnc(Cc4ccc(F)cc4)s3)c(=O)c(O)c2C1=O [Example 175] | 9.5 nM |
| COC1CN(C(=O)[C@@]2(C)CN([C@H](C)C3CC3)C(=O)c3c(O)c(=O)c(-c4ncc(Cc5ccc(F)cc5)s4)cn32)C1 [Example 281] | 16 nM |

| Structure (SMILES) | IC50 |
| --- | --- |
| COC1CN(C(=O)[C@@]2(C)CN(CC3CC3)C(=O)c3c(O)c(=O)c(-c4ncc(Cc5ccc(F)cc5)s4)cn32)C1 [Example 262] | 10 nM |
| COC[C@H]1[C@@H](C)N(CC2CC2)C(=O)c2c(O)c(=O)c(-c3nnc(Cc4ccc(F)cc4)s3)cn21 [Example 259] | 9 nM |
| CCC(CC)N1C(=O)c2c(O)c(=O)c(-c3nnc(Cc4ccc(F)cc4)s3)cn2C[C@H]1COC [Example 295] | 12 nM |
| COC[C@H]1Cn2cc(-c3nnc(Cc4ccc(F)cc4F)s3)c(=O)c(O)c2C(=O)N1C1CCC1 [Example 98] | 7.5 nM |
| COCC1Cn2cc(-c3nnc(Cc4ccc(F)cc4F)s3)c(=O)c(O)c2C(=O)N1C(C)C (stereo not shown) [Example 42] | 3.4 nM |
| CC(C)N1CC(C)(C(=O)N2CCCC2)n2cc(-c3ncc(Cc4ccc(F)cc4F)s3)c(=O)c(O)c2C1=O (stereo not shown) [Example 39] | 10 nM |
| COC[C@@H]1Cn2cc(-c3nnc(Cc4ccc(F)cc4)s3)c(=O)c(O)c2C(=O)N1C(C)C1CC1 (stereo partly shown) [Example 198] | 5.7 nM |
| CC(C)N1CC(CNS(C)(=O)=O)n2cc(-c3ncc(Cc4ccc(F)cc4F)s3)c(=O)c(O)c2C1=O (stereo not shown) [Example 78] | 8.9 nM |
| COC[C@H]1CN(C(C)C)C(=O)c2c(O)c(=O)c(-c3nnc(Cc4c(F)cc(F)cc4OC)s3)cn21 [Example 220] | 6.8 nM |
| CO[C@@H](C)COC[C@H]1CN(C(C)C)C(=O)c2c(O)c(=O)c(-c3nnc(Cc4ccc(F)cc4)s3)cn21 [Example 385] | 8.2 nM |
| CC(C)N1C(=O)c2c(O)c(=O)c(-c3nnc(Cc4ccc(F)cc4)s3)cn2C[C@@]1(C)C(=O)O [Example 312] | 12 nM |
| CC(C)N1CC(C)(C(=O)N(C)C)n2cc(-c3ncc(Cc4ccc(F)cc4F)s3)c(=O)c(O)c2C1=O (stereo not shown) [Example 28] | 15 nM |
| COC[C@H]1CN(C(C)C)C(=O)c2c(O)c(=O)c(-c3nnc(CCc4ccc(F)cc4)s3)cn21 [Example 241] | 14 nM |
| COC1CN(C(=O)CC2CN(C(C)C)C(=O)c3c(O)c(=O)c(-c4ncc(Cc5ccc(F)cc5F)s4)cn32)C1 (stereo not shown) [Example 272] | 8.9 nM |
| CC(C)[C@H]1CN(C(C)C)C(=O)c2c(O)c(=O)c(-c3nnc(Cc4ccc(F)cc4)s3)cn21 [Example 194] | 8.2 nM |
| COCCOC[C@H]1CN(CC2CC2)C(=O)c2c(O)c(=O)c(-c3nnc(Cc4ccc(F)cc4F)s3)cn21 [Example 119] | 11 nM |
| CCNC(=O)[C@@]1(C)CN(C(C)C)C(=O)c2c(O)c(=O)c(-c3nnc(Cc4ccc(F)cc4F)s3)cn21 [Example 173] | 16 nM |
| CCNC(=O)C1(C)CN(C(C)C)C(=O)c2c(O)c(=O)c(-c3ncc(Cc4ccc(F)cc4)s3)cn21 (stereo not shown) [Example 105] | 17 nM |
| COC[C@H]1Cn2cc(-c3nnc(Cc4ccc(F)cc4F)s3)c(=O)c(O)c2C(=O)N1C(C)C [Example 96] | 6.7 nM |
| COC[C@H]1CN(C(C)C)C(=O)c2c(O)c(=O)c(-c3nnc(Cc4ccc(C(F)(F)F)cc4)s3)cn21 [Example 244] | 74 nM |
| CCC(=O)N(C)CC1(C)CN(C(C)C)C(=O)c2c(O)c(=O)c(-c3ncc(Cc4ccc(F)cc4F)s3)cn21 (stereo not shown) [Example 7] | 13 nM |
| CO[C@@H]1CCN(C(=O)[C@@]2(C)CN(C(C)C)C(=O)c3c(O)c(=O)c(-c4nnc(Cc5ccc(F)cc5)s4)cn32)C1 [Example 211] | 16 nM |
| CC(C)N1C[C@](C)(C(=O)N2CC[C@H](O)C2)n2cc(-c3nnc(Cc4ccc(F)cc4)s3)c(=O)c(O)c2C1=O [Example 204] | 13 nM |
